Test [1] deals with Cerebral cortex neuron. In words: Modulation of calcium oscillation in Swiss-Webster gravid dams mouse cerebrocortical neurons measured for 2 mins on day 12 by fluo-3 AM dye based fluorescence assay. Format: functional, cell-based.
The subject of test [2] is NCI-H460. Briefly: Cytotoxicity against human NCI-H460 cells at 30 uM incubated for 48 hrs by MTT assay. Format: functional, cell-based. For orientation: Tetrazolium assays rely on reduction of a dye to a coloured formazan, in cell work by metabolically active cells.

The source made the active and inactive calls. The rule behind the calls is not given here.

Regarding `CC(C)[C@@H]1NC(=O)[C@@H](Cc2ccccc2)NC(=O)[C@@H](C)NC(=O)[C@H](CO)NC(=O)[C@@H](NC(=O)[C@@H](CO)NC(=O)c2csc(CNC(=O)c3csc([C@H](C(C)C)N(C)C)n3)n2)[C@@H](C)OC(=O)[C@H](Cc2ccccc2)NC1=O`, the result in test [1] and in test [2] was inactive.

The values are drawn from ChEMBL document CHEMBL4613240, “Pagoamide A, a Cyclic Depsipeptide Isolated from a Cultured Marine Chlorophyte, Derbesia sp., Using MS/MS-Based Molecular Networking” (J Nat Prod, 2020).
